Drawing on patent US12258365B2, “Organophosphorus-substituted compounds as c-MET inhibitors and therapeutic uses thereof” (BETA PHARMA, INC., priority 2018, dated 2025), this text covers IC50 for 22 compounds.

pIC50: −log10 of the molar value.

Sequence of c-MET (P08581 25-1390): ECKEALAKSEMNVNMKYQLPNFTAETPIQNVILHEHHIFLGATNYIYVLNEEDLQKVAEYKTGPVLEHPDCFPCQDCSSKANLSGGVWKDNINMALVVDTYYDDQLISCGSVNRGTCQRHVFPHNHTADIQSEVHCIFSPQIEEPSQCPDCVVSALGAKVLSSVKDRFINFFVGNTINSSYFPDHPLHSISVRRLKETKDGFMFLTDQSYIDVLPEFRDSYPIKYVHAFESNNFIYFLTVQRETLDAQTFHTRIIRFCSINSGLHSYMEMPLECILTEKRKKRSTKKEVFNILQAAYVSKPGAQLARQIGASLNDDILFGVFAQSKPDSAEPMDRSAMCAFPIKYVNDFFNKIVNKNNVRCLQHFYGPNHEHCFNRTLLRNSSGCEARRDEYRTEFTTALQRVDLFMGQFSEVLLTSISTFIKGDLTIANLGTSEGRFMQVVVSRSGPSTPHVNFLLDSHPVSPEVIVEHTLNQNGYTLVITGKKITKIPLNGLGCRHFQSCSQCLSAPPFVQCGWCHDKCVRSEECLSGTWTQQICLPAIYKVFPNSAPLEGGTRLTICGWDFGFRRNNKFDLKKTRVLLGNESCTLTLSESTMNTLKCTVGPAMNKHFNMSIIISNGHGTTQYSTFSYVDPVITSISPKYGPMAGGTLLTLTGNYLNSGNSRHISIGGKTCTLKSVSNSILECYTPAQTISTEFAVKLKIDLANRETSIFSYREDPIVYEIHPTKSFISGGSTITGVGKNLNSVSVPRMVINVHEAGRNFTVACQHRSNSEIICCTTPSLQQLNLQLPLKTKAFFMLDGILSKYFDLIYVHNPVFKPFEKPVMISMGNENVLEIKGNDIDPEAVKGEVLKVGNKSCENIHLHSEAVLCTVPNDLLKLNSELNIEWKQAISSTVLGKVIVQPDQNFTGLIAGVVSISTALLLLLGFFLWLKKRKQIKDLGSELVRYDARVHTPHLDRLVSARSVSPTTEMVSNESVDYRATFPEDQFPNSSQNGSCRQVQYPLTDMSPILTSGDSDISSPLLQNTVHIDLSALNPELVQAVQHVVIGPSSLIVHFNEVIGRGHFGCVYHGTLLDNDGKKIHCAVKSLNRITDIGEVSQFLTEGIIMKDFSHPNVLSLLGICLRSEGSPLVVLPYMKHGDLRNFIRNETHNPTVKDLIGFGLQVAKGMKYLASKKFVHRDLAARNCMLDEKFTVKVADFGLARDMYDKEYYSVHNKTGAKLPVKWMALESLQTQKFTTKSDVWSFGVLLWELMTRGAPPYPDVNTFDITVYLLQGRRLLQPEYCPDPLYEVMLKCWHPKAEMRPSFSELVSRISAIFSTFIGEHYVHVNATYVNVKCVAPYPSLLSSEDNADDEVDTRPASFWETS

In this assay the target is c-MET (Homo sapiens, UniProt P08581). Briefly: Biochemical kinase assay (33P-ATP, filter-binding). The settings on record: radiometric 33P-ATP filter-binding kinase reaction, 20 min preincubation, 2 hours at room temperature. The method, then:
Reaction Buffer: 20 mM Hepes (pH 7.5), 10 mM MgCl2, 1 mM EGTA, 0.02%, Brij35, 0.02 mg/mL BSA, 0.1 mM Na3VO4, 2 mM DTT and 1% DMSO.
Required cofactors were added individually to each kinase reaction.
The testing compounds were dissolved in 100% DMSO to specific concentration. The serial dilution was conducted by Integra Viaflo Assist in DMSO.
• 1. Prepare substrate in freshly prepared Reaction Buffer. • 2. Deliver any required cofactors to the substrate solution above. • 3. Deliver kinase into the substrate solution and gently mix. • 4. Deliver compounds in 100% DMSO into the kinase reaction mixture by Acoustic technology (Echo550; nanoliter range), incubate for 20 min at room temp. • 5. Deliver ^33P-ATP (Specific activity 10 μCi/μL) into the reaction mixture to initiate the reaction. • 6. Incubate for 2 hours at room temperature. • 7. Detect radioactivity by filter-binding method. • 8. Kinase activity data were expressed as the percent remaining kinase activity in test samples compared to vehicle (DMSO) reactions. IC50 values and curve fits were obtained using Prism (GraphPad Software) (Table 1).
A word on the pIC50: it is the IC50 on a negative log10 scale, so that one unit is a factor of ten. Compound `CP(C)(=O)c1cccc(-c2cnc3nnn(Cc4ccc5nccn5c4)c3n2)c1` [Example 7, (3-(1-(Imidazo[1,2-a]pyridin-6-ylmethyl)-1H-[1,2,3]triazolo[4,5-b]pyrazin-6-yl)phenyl)-dimethylphosphine Oxide] had a pIC50 of 7.70 to 7.96. Next, `Cn1cc2cc(Cn3nnc4ncc(-c5ccc(P(C)(C)=O)cc5)nc43)c(F)cc2n1` [Example 20, (4-(1-((6-Fluoro-2-methyl-2H-indazol-5-yl)methyl)-1H-[1,2,3]triazolo[4,5-b]pyrazin-6-yl)phenyl)dimethylphosphine Oxide]: above 8.00. Next, `CC(c1ccc2ncccc2c1)n1nnc2ncc(-c3ccc(P(C)(C)=O)cc3)nc21` (stereo not shown) [Example 19, Dimethyl(4-(1-(1-(quinolin-6-yl)ethyl)-1H-[1,2,3]triazolo[4,5-b]pyrazin-6-yl)phenyl)phosphine Oxide]: above 8.00; `CC(c1ccc2nccn2c1)n1nnc2ncc(-c3ccc(P(C)(C)=O)cc3)nc21` (stereo not shown) [Example 15, (4-(1-(1-(Imidazo[1,2-a]pyridin-6-yl)ethyl)-1H-[1,2,3]triazolo[4,5-b]pyrazin-6-yl)phenyl)dimethylphosphine Oxide]: above 8.00. With `CP(=O)(O)Cc1ccc(-c2cnc3nnn(Cc4ccc5ncccc5c4)c3n2)cc1` [Example 3, Methyl(4-(1-(quinolin-6-ylmethyl)-1H-[1,2,3]triazolo[4,5-b]pyrazin-6-yl)benzyl)-phosphinic Acid], the negative logarithm of the IC50 (pIC50) is above 8.00.

In turn, `CP(C)(=O)c1ccc(-c2cnc3nnn(Cc4ccc5nccn5c4)c3n2)cc1` [Example 6, (4-(1-(Imidazo[1,2-a]pyridin-6-ylmethyl)-1H-[1,2,3]triazolo[4,5-b]pyrazin-6-yl)phenyl)dimethylphosphine Oxide] gave a pIC50 above 8.00. Next, `CP(C)(=O)c1cnc2nnn(Cc3ccc4ncccc4c3)c2n1` [Example 18, Dimethyl(1-(quinolin-6-ylmethyl)-1H-[1,2,3]triazolo[4,5-b]pyrazin-6-yl)phosphine Oxide]: 5.22 to 6.00. Next, `CP(C)(=O)c1ccc(Nc2cnc3nnn(Cc4ccc5ncccc5c4)c3n2)cc1F` [Example 12, (2-Fluoro-4-((1-(quinolin-6-ylmethyl)-1H-[1,2,3]triazolo[4,5-b]pyrazin-6-yl)amino)phenyl)dimethylphosphine Oxide]: above 8.00. `CP(C)(=O)c1ccc(-c2cnc3nnn(Cc4ccc5ncc(F)n5c4)c3n2)cc1` [Example 17, (4-(1-((3-Fluoroimidazo[1,2-a]pyridin-6-yl)methyl)-1H-[1,2,3]triazolo[4,5-b]pyrazin-6-yl)phenyl)dimethylphosphine Oxide] gave a negative logarithm of the IC50 (pIC50) of 7.00 to 7.68.

`CP(C)(=O)Cn1cc(-c2cnc3nnn(Cc4ccc5nccn5c4)c3n2)cn1` [Example 10, ((4-(1-(Imidazo[1,2-a]pyridin-6-ylmethyl)-1H-[1,2,3]triazolo[4,5-b]pyrazin-6-yl)-1H-pyrazol-1-yl)methyl)dimethylphosphine Oxide] gave a pIC50 of 7.00 to 7.68. Next, `CP(C)(=O)c1ccc(-c2cnc3nnn(Cc4ccc5ncccc5c4)c3n2)cc1` [Example 1, Dimethyl(4-(1-(quinolin-6-ylmethyl)-1H-[1,2,3]triazolo[4,5-b]pyrazin-6-yl)phenyl)-phosphine oxide]: above 8.00. As for `CP(C)(=O)Cn1cc(-c2cnc3nnn(Cc4ccc5ncccc5c4)c3n2)cn1` [Example 9, Dimethyl((4-(1-(quinolin-6-ylmethyl)-1H-[1,2,3]triazolo[4,5-b]pyrazin-6-yl)-1H-pyrazol-1-yl)methyl)phosphine Oxide], the pIC50 was 7.00 to 7.68. The result for `CP(C)(=O)c1ccc(-c2cnc3nnn(Cc4ccc5ncccc5c4)c3n2)cc1F` [Example 5, (2-Fluoro-4-(1-(quinolin-6-ylmethyl)-1H-[1,2,3]triazolo[4,5-b]pyrazin-6-yl)phenyl)dimethyl-phosphine Oxide] reads above 8.00; that for `CP(C)(=O)c1ccc(Nc2cnc3nnn(Cc4ccc5ncccc5c4)c3n2)cc1` [Example 11, Dimethyl(4-((1-(quinolin-6-ylmethyl)-1H-[1,2,3]triazolo[4,5-b]pyrazin-6-yl)amino)phenyl)phosphine Oxide], above 8.00; that for `CCOP(C)(=O)Cc1ccc(-c2cnc3nnn(Cc4ccc5ncccc5c4)c3n2)cc1` (stereo not shown) [Example 2, Ethyl methyl(4-(1-(quinolin-6-ylmethyl)-1H-[1,2,3]triazolo[4,5-b]pyrazin-6-yl)benzyl)-phosphinate], above 8.00. Next, `CP(C)(=O)c1ccc(-c2cnc3nnn(Cc4ccc5c(c4)CCO5)c3n2)cc1` [Example 16, (4-(1-((2,3-Dihydrobenzofuran-5-yl)methyl)-1H-[1,2,3]triazolo[4,5-b]pyrazin-6-yl)phenyl)dimethylphosphine Oxide]: 7.70 to 7.96. `CP(C)(=O)c1cccc(-c2ccc3nnc(C(F)(F)c4ccc5nccn5c4)n3n2)c1` [Example 13, (3-(3-(Difluoro(imidazo[1,2-a]pyridin-6-yl)methyl)-[1,2,4]triazolo[4,3-b]pyridazin-6-yl)phenyl)dimethylphosphine Oxide] had a pIC50 of 7.00 to 7.68. Next, `Cn1cc2cc(Cn3nnc4ncc(-c5ccc(P(C)(C)=O)c(F)c5)nc43)c(F)cc2n1` [Example 21, (2-fluoro-4-(1-((6-fluoro-2-methyl-2H-indazol-5-yl)methyl)-1H-[1,2,3]triazolo[4,5-b]pyrazin-6-yl)phenyl)-dimethylphosphine oxide]: above 8.00.

Regarding `CP(C)(=O)c1ccc(-c2ccc3nnc(C(F)(F)c4ccc5nccn5c4)n3n2)cc1` [Example 14, (4-(3-(Difluoro(imidazo[1,2-a]pyridin-6-yl)methyl)-[1,2,4]triazolo[4,3-b]pyridazin-6-yl)phenyl)dimethylphosphine Oxide], the pIC50 was 5.22 to 6.00. Next, `Cn1cc2cc(Cn3nnc4ncc(-c5ccc(P(C)(C)=O)c(F)c5)nc43)ccc2n1` [Example 22, (2-Fluoro-4-(1-((2-methyl-2H-indazol-5-yl)methyl)-1H-[1,2,3]triazolo[4,5-b]pyrazin-6-yl)phenyl)dimethylphosphine Oxide]: above 8.00; `CP(C)(=O)c1cccc(-c2cnc3nnn(Cc4ccc5ncccc5c4)c3n2)c1` [Example 8, Dimethyl(3-(1-(quinolin-6-ylmethyl)-1H-[1,2,3]triazolo[4,5-b]pyrazin-6-yl)phenyl)phosphine Oxide]: 7.70 to 7.96. As to `CP(C)(=O)c1ccc(-c2cnc3nnn(Cc4ccc5ncccc5c4)c3n2)c(F)c1` [Example 4, (3-Fluoro-4-(1-(quinolin-6-ylmethyl)-1H-[1,2,3]triazolo[4,5-b]pyrazin-6-yl)phenyl)dimethylphosphine oxide], the negative logarithm of the IC50 (pIC50) is 7.70 to 7.96.
